# Test results: patent publication US20140088114A1, “FUSED BICYCLIC KINASE INHIBITORS” (OSI Pharmaceuticals ,LLC, priority 2011, published 2014)
# How the values were obtained:
# MKN45 cells = test: MKN45 cell proliferation assay (CellTiter-Glo); type: cell-based; settings: Homo sapiens, MKN-45, 72 h; MKN45 cell line, 3 days incubation, at least duplicate experiments; read-out: Prolif. IC50
# Procedure: The effect of inhibitors on the proliferation of MKN45 cells was determined using the following protocol. MKN45 cells were plated in Corning 3917 96-well white tissue culture treated plates in growth medium (RPMI, 10% FCS) at a density of 5000 cells/well in a total volume of 135 μL and incubated at 37° C., 5% CO2, 95% humidity overnight. The following day, one-tenth volume of a 10× concentration of compounds was added to the wells in an 8-point dilution series. The dilution series was composed of an initial 1:5 dilution of a 10 mM stock of compound in DMSO, followed by serial 1:4 dilutions in DMSO, then a 1:20 dilution in growth medium prior to the 1:10 dilution into the cell plate. Final DMSO concentration on the cells was 0.1%, there were control wells treated with both 0.1% DMSO and no DMSO. The typical dilution range is 10 μM to 0.6 nM. Once the compound was added to the cells, plates were incubated for 3 days at 37° C., 5% CO2 at 95% humidity. On the third day, after allowing all cells and reagents to come to room temperature, 25 μL of CellTiter-Glo reagent (Promega #G7573) was added to the wells. Plates were shaken on a platform for 10 minutes prior to reading luminescence for 0.1 seconds. The signal of the control wells was taken as 100% growth and growth inhibition was expressed as percent of control. IC50 values were determined from the percent of control data using a standard four-parameter model.
# The IC50 values of exemplary compounds of the present invention determined in a cell proliferation assay using the MKN45 cell line according to the procedures described herein in at least duplicate experiments are abbreviated as follows and are shown in Table 2: A, IC50≦0.03 μM; B, 0.03 μM<IC50≦0.1 μM; C, 0.1 μM<IC50≦1 μM; D, 1 μM<IC50≦3 μM; ND, not determined. The Example # of Table 2 corresponds to the compound example number as illustrated in the Examples section. […]
# Karpas-299 cells = test: Karpas-299 cell proliferation assay (CellTiter-Glo); type: cell-based; settings: Homo sapiens, 72 h; Karpas-299 cell line (NPM-ALK), 3 days incubation, at least duplicate experiments; read-out: Prolif. IC50
# Procedure: The effect of inhibitors on the proliferation of Karpas-299 cells (DSMZ no. ACC 31) was determined using the following protocol. Karpas-299 cells were plated in 96-well white tissue culture treated plates (Corning 3917) in growth medium (RPMI, 10% FCS) at a density of 5000 cells/well in a total volume of 135 μL and incubated at 37° C., 5% CO2, 95% humidity overnight. The following day, one-tenth volume of a 10× concentration of compounds was added to the wells in an 8-point dilution series. Compounds were serially diluted (1:4) in DMSO from a 10 mM stock solution prior to dilution in growth media to the 10× working concentrations (5% DMSO). Final concentration of DMSO in compound-treated wells was 0.5%. Control wells containing growth media or growth media/0.5% DMSO were included in all test plates. The typical dilution range is 10 μM to 0.1 nM. Once the compounds were added to the cells, plates were incubated for 3 days at 37° C., 5% CO2 at 95% humidity. After 72 hours, all cells and reagents were equilibrated to room temperature and 15 μL of CellTiter-Glo reagent (Promega #G7573) was added to each well. Plates were shaken on a platform for 10 minutes at room temperature prior to reading luminescence. The value of the signal of the control wells was set as 100% growth and growth inhibition was expressed as percent of control. IC50 values were determined from the percent of control data using a standard four-parameter curve fit equation.
# The IC50 values of exemplary compounds of the present invention determined in a cell proliferation assay using the Karpas-299 cell line according to the procedures described herein in at least duplicate experiments are abbreviated as follows and are shown in Table 5: A, IC50≦0.03 μM; B, 0.03 μM<IC50≦0.1 μM; C, 0.1 μM<IC50≦1 μM; D, 1 μM<IC50≦3 μM; ND, not determined. The Example # of Table 5 corresponds to the compound example number as illustrated in the Examples section.
# The Karpas-299 cell line has a t(2;5) chromosomal translocation and expresses the NPM-ALK fusion protein, resulting in constitutively active ALK. […] Ther. 6(12):3314-22 (2007)]. With this “ALK-driven” cell line by ALK, the cell proliferation IC50 values can thus be used as surrogate for the p-ALK cell mechanistic IC50 values.
SMILES,IC50 (MKN45 cells) [nM],IC50 (Karpas-299 cells) [nM]
"Cn1cc(-c2cnc3[nH]cc(C(CF)c4c(Cl)ccc(F)c4Cl)c3c2)cn1 (stereo not shown) [Example 1, 3-[1-(2,6-Dichloro-3-fluorophenyl)-2-fluoroethyl]-5-(1-methyl-1H-pyrazol-4-yl)-1H-pyrrolo[2,3-b]pyridine]",100 to 1000,100 to 1000
"COc1ccc(F)c(Cl)c1[C@@H](CF)c1c[nH]c2ncc(-c3cnn([C@H]4CC[C@H](O)CC4)c3)cc12 [Example 3, trans-4-(4-{3-[(1S)-1-(2-chloro-3-fluoro-6-methoxyphenyl)-2-fluoroethyl]-1H-pyrrolo[2,3-b]pyridin-5-yl}-1H-pyrazol-1-yl)cyclohexanol]",100 to 1000,30 to 100
"O[C@H]1CC[C@H](n2cc(-c3cnc4[nH]cc([C@@H](CF)c5c(OC(F)F)ccc(F)c5Cl)c4c3)cn2)CC1 [Example 4, trans-4-[4-(3-{(1R)-1-[2-Chloro-6-(difluoromethoxy)-3-fluorophenyl]-2-fluoroethyl}-1H-pyrrolo[2,3-b]pyridin-5-yl)-1H-pyrazol-1-yl]cyclohexanol]",≤ 30,100 to 1000
"O[C@H]1CC[C@H](n2cc(-c3cnc4[nH]cc([C@H](CF)c5c(OC(F)F)ccc(F)c5Cl)c4c3)cn2)CC1 [Example 5, trans-4-[4-(3-{(1S)-1-[2-Chloro-6-(difluoromethoxy)-3-fluorophenyl]-2-fluoroethyl}-1H-pyrrolo[2,3-b]pyridin-5-yl)-1H-pyrazol-1-yl]cyclohexanol]",,≤ 30
